Several values for one entry are separate records, joined by “and”; a condition that tells them apart may be missing. Equal entries are not always repeated.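 Cultured in 96-well plates, cells were exposed to test compound for 48 hours across five concentrations. GI50 = concentration required for 50% inhibition of growth. TGI is the concentration that stops growth completely.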
Columns and labels:
Test in all cases: DTP human tumour cell line panel, 48 h
[1] = test system: CAKI-1 renal
[2] = test system: HL-60(TB) leukemia
[3] = test system: SK-MEL-28 melanoma
[4] = test system: SK-MEL-2 melanoma
[5] = test system: OVCAR-4 ovarian
[6] = test system: A549 NSCLC
[7] = test system: A498 renal
[8] = test system: SNB-75 CNS
[9] = test system: KM12 colon
[10] = test system: SR leukemia

| SMILES | TGI [1] [µM] | TGI [2] | TGI [3] [µM] | TGI [4] [µM] | TGI [5] [µM] | TGI [6] [µM] | TGI [7] [µM] | TGI [8] [µM] | TGI [9] [µM] | TGI [10] [µM] | GI50 [1] [µM] | GI50 [2] | GI50 [3] [µM] | GI50 [4] [µM] | GI50 [5] [µM] | GI50 [6] [µM] | GI50 [7] [µM] | GI50 [8] [µM] | GI50 [9] [µM] | GI50 [10] [µM] |
| --- | --- | --- | --- | --- | --- | --- | --- | --- | --- | --- | --- | --- | --- | --- | --- | --- | --- | --- | --- | --- |
| CCOC(=O)N1C/C(=C\c2ccc(N(C)C)cc2)C(=O)/C(=C/c2ccc(N(C)C)cc2)C1 | > 100 | > 100 µM | > 100 | > 100 | > 100 | > 100 | > 100 | > 100 | > 100 | > 100 |  |  |  |  |  |  |  |  |  |  |
| Nc1ncnc2c1ncn2C1(CO)OC(CO)C(O)C1O (stereo not drawn) | > 100 | > 100 µM | > 100 | > 100 | > 100 | > 100 | > 100 | > 100 | > 100 | > 100 |  |  |  |  |  |  |  |  |  |  |
| COc1cccc2c1C(=O)c1c(O)c3c(c(O)c1C2=O)C[C@@](O)(C(=O)CO)C[C@@H]3OC1CC2C(OCN2CN2COC3C(C)OC(O[C@H]4C[C@](O)(C(=O)CO)Cc5c(O)c6c(c(O)c54)C(=O)c4c(OC)cccc4C6=O)CC32)C(C)O1 (stereo partly drawn) | 0.00708 |  | 0.0378 | 0.0591 | 0.0593 |  | 0.0821 | 0.0149 | 0.0609 | 0.00476 | 0.000878 | 0.000329 µM | 0.016 | 0.0179 | 0.0222 | 0.0056 | 0.0196 | 0.00419 | 0.0139 | 0.000289 |
| Cc1ccc(C)c(NC(=O)C(=O)C(C2C(C)CC(=O)C2CC(=O)O)[N+](=O)[O-])c1 (stereo not drawn) | > 100 | > 100 µM | > 100 | > 100 | > 100 | > 100 | > 100 | > 100 | > 100 | > 100 |  |  |  |  |  |  |  |  |  |  |
| C(#Cc1ccccc1C#Cc1cnccn1)c1cnccn1 | 51.5 | 22.5 µM | > 100 | > 61.1 | > 100 | > 86.3 | 72.1 | > 100 | 68.3 | > 100 | 12.5 | 9.32 µM | 46.9 | > 38.9 | 38.3 | 34.5 | 20.2 | 29.2 | 26.1 | 6.81 |
| CCCOC(=O)C1C(c2ccc(OC)cc2)NC(c2ccc(OC)cc2)C(C(=O)OCCC)S1(=O)=O (stereo not drawn) | > 100 | > 100 µM | > 100 | > 100 | > 100 | > 100 | > 100 | > 100 | > 100 | > 100 | > 100 |  | > 100 | > 100 | > 100 | > 100 |  | > 100 | > 100 |  |
| Cc1ccc(S(=O)(=O)NC(=O)Nc2ncn[nH]2)cc1 | > 100 | > 100 µM | > 100 | > 100 | > 100 | > 100 | > 100 | > 100 | > 100 | > 100 |  |  |  |  |  |  |  |  |  |  |
| COc1ccc(C(=O)c2no[n+]([O-])c2C(=O)c2ccc(OC)cc2)cc1 | 4 | 4.37 µM | 22.1 | 23.1 | 6.26 | 34.4 | 29.2 | 9.26 | 22.4 | 3.22 | 1.9 | 2.08 µM | 9.03 | 6.59 | 2.36 | 17.2 | 15.6 | 3.03 | 8.91 | 0.726 |
| CC1=C(C(=O)Nc2cc(F)c(F)cc2F)C(c2ccc(N(C)C)cc2)C(C(=O)Nc2cc(F)c(F)cc2F)=C(C)N1 | > 67.7 | > 61.2 µM | > 100 | > 100 | > 79.1 | > 60.5 | 80.5 | 48.1 | > 75.5 | > 100 |  |  |  |  |  |  |  |  |  | 18.7 |
| O=C1/C(=C/c2ccccc2)CN(C(=O)/C=C/c2ccccc2)C/C1=C\c1ccccc1 | 99.4 | 16.4 µM | 21.4 | 52 | 24.7 | 37.2 | 92 | 60.5 | 12.2 | 4.64 |  |  |  |  |  |  |  |  |  |  |
| O=NN(CC(=O)NNc1ccccc1)CC(=O)NNc1ccccc1 | > 100 | > 100 µM | > 100 | > 100 | > 100 | > 100 | > 100 | > 100 | > 100 | > 100 | 3.77 | 0.534 µM |  | > 100 |  | > 23.1 | > 100 | > 45.4 | 0.893 | > 25.6 |
| COc1cc(/C=C/C(=O)c2cccc(-n3cc(-c4ccccc4)[nH]c3=O)c2)ccc1O | 15.2 | 5.53 µM | 3.07 | 15.1 | > 23 | 17.8 | 3.87 | 12.3 | 4.68 | > 100 | 4.47 | 2.07 µM | 0.722 | 3.81 | 3.3 | 4.18 | 1.68 | 3.21 | 2.02 | 1.65 |
| COc1cc2c(cc1OCCCN1CCN(CCCOc3cc4c(cc3OC)C(=O)N3C[C@H](F)C[C@H]3C=N4)CC1)N=C[C@@H]1C[C@@H](F)CN1C2=O | 2 | 0.797 µM | 0.343 | 3.29 | 22.6 |  | 0.38 | 0.594 |  | 0.521 | 0.0683 | < 0.045 µM | 0.0713 | 0.394 | 0.386 |  | 0.0947 | 0.0338 | 0.18 | < 0.021 |
| O=c1oc2cc(O)ccc2cc1-c1nc2ccccc2o1 | > 100 | 70.6 µM | > 100 | > 100 | > 100 | > 100 | 84.7 | > 100 | 93 | > 100 |  |  |  |  |  |  |  |  |  |  |
| CCn1cnc(C[C@H](NC(=O)[C@@H](NC(=O)Nc2cc(C(F)(F)F)cc(C(F)(F)F)c2)C(C)(C)C)C(=O)OC)c1 | > 10 | > 10 µM | > 10 | > 10 | > 10 | > 10 | > 10 | > 10 | > 10 | > 10 | > 10 | > 10 µM | > 10 | > 10 | > 10 | > 10 | > 10 | > 10 | > 10 | > 10 |
| CCc1n(Cc2ccc3ccccc3c2)cc[n+]1Cc1ccc2ccccc2c1 | 25.5 | 1.17 µM | 2.06 | 2.14 | 1.28 | 13.9 | 4.15 | 1.71 | 1.89 | 4.28 | 12.4 | 0.249 µM | 0.581 | 0.534 | 0.307 | 2.59 | 1.13 | 0.335 | 0.549 | 0.528 |
| N#C/C(=C\c1ccccn1)c1nc2ccccc2o1 | > 100 | 76.2 µM | 45 | > 100 | 34.2 | > 100 | 99.2 | > 100 | > 100 | 78.4 | 35.1 | 15.3 µM | 20.7 | 29.1 | 17.3 | 36.5 | 30.4 | 21.8 | 26.8 | 20 |
| CC(C)C[C@H](NC(=O)[C@@H](N)Cc1cccc2ccccc12)B(O)O |  | 50 µM and > 100 µM |  |  |  |  |  |  |  | 0.0653 | 0.225 | 0.0789 µM and 0.0291 µM | 0.186 | 0.598 | 0.0384 | 0.926 | 0.202 | 1.07 | 0.546 |  |
| Cc1nc2sc(C(=O)Nc3cccc4c3OCCO4)c(N)c2cc1C(C)O (stereo not drawn) | > 100 | 13 µM | > 100 |  | > 100 | > 100 | 9.05 | > 100 | > 100 | > 100 | 4.91 | 2.99 µM | > 100 |  | > 100 | 6.25 | 2.16 | 1.81 | 3.85 | 1.18 |
| O=C1/C(=C/c2ccc([N+](=O)[O-])s2)Oc2ccc(Br)cc21 | 9.42 | 7.5 µM | 0.951 | 0.509 | 1.43 | 1.68 | 6.32 | 4.17 | 0.623 | 0.914 | 1.16 | 0.487 µM | 0.302 | 0.231 | 0.352 | 0.376 | 2.31 | 0.342 | 0.247 | 0.152 |
| CN(COC(=O)C(C)(C)C)c1nc(N(C)COC(=O)C(C)(C)C)nc(N(C)COC(=O)C(C)(C)C)n1 | > 100 | 63.6 µM | > 100 | > 100 | > 100 | > 100 | > 100 | > 100 | > 100 | > 100 |  |  |  |  |  |  |  |  |  |  |
| O=[N+]([O-])c1cc2c(ccc3ccccc32)o1 | 3.06 | 4.52 µM | 0.585 | 0.416 | 11 | 3.12 | 0.277 | 2.27 | 4.02 | > 39.9 | 0.31 | 0.331 µM | 0.21 | 0.202 | 1.76 | 0.413 | 0.127 | 0.497 | 0.973 | 0.346 |
| O=C1C=CC(=O)N1c1ccc2ccccc2c1 | 17.8 | 33.5 µM | 34 | 35.3 | 34.1 | 43.2 | 27.3 | 38.4 | 71 | 7.33 | 4.65 | 7.74 µM | 16.8 | 17.9 | 8.92 | 20.3 | 12.7 | 16.6 | 24.1 | 2.6 |
| COc1cccc(/C=C2\COc3ccc(O)c(O)c3C2=O)c1OC | 4.69 | > 100 µM | 12.9 | 6.34 | 8.47 | 14.2 | 13.9 | 20.9 | 3.92 | > 100 | 1.71 | 1.04 µM | 3.53 | 2.35 | 2.17 | 2.58 | 4.01 | 3.61 | 1.67 | 1.51 |
| CC(=O)CC(=O)Nc1ccc(OS(N)(=O)=O)cc1 | > 100 | > 100 µM | > 100 | > 100 | > 100 | > 100 | > 100 | > 100 | > 100 | > 100 |  |  |  |  |  |  |  |  |  |  |
| COC(=O)c1cc2c3cc(Cl)ccc3[nH]c2c2ncccc12 | > 100 | > 100 µM | > 100 | > 100 | > 100 | > 100 | > 100 | > 100 | > 100 | > 100 | > 100 | > 100 µM | > 100 | > 100 | > 100 | > 100 | > 100 | > 100 | > 100 | > 100 |
| NNC(=S)N/N=C(\c1nc2ccc(Cl)cc2[nH]c1=O)C(O)c1cccc([N+](=O)[O-])c1 (stereo not drawn) | > 100 | > 94.3 µM | > 79.4 | > 100 | > 100 | > 100 | > 100 | > 100 | > 100 | 33.8 |  |  |  |  |  |  |  |  |  |  |
| Nc1ncnc2occ(-c3ccc(NC(=O)Nc4cccc(C(F)(F)F)c4)cc3)c12 | 13 | 14.2 µM | 12.7 | 11.6 | 17.7 | 14.9 | 3.22 | 9.69 | 4.51 | 8.59 | 2.29 | 5.1 µM | 4.89 | 5.39 | 3.19 | 4.73 | 0.422 | 3.77 | 0.123 | 0.957 |
| O=[N+]([O-])C(=C1c2ccccc2-c2ccccc21)[N+](=O)[O-] | > 100 | 98.9 µM | > 100 | > 100 | > 100 | > 100 | > 100 |  | > 100 | > 100 |  |  |  |  |  |  |  |  |  |  |
| Cc1ncc2c(n1)CCC1=C2OS(=O)(=O)CC1N(C)C (stereo not drawn) | > 100 | > 100 µM | > 100 |  | > 100 | > 100 | > 100 | > 100 | > 100 | > 100 |  |  |  |  |  |  |  |  |  |  |

— PubChem BioAssay (NCI)
